Key:
HBL-1 cells = experiment: Apoptosis assay, AnnexinV-FITC/propidium iodide FCM; format: cell-based, Human; details: HBL-1, treatment for 18 hours (legend: 24 hours)
Method: Figure 1 The chemical structure of SKLB-850 and its anti-tumor effects in vitro (A) The chemical structure of SKLB-850. (B and C) Apoptosis of Ramos cells induced by SKLB-850. Cells were treated by vehicle, R788 or indicated concentrations of compounds. […]
The ability of SKLB-850 to induce apoptosis of BCL cells was analyzed by FCM. […]
Flow cytometry (FCM) assays were performed to investigate the apoptosis of Ramos and HBL-1 cells induced by SKLB-850. […] Cell apoptosis was analyzed with a flow cytometer (BD FACSCalibur, BD, USA).

Ramos cells = experiment: Cell cycle analysis by FCM; format: cell-based, Human; details: 18 hours; for percentages of cells in the G2 phase (in words): compared with the control
Method: FCM was again used to examine the influence of SKLB-850 on the tumor cell cycle.
Figure 2 Cell cycle analysis of Ramos and HBL-1 cells induced by SKLB-850, R788 DMSO or control Tumor cells were treated by vehicle, R788 or indicated concentrations of compounds. After 18 hours, cell were harvested and stained with AnnexinV-FITC and propidium iodide, and then analyzed by FCM. […] (A and C) Cell cycle analysis of Ramos cells. (B and D) Cell cycle analysis of HBL-1 cells. […] Columns, mean; bars, SD.^##P < 0.01, 850 group versus DMSO or blank control group.
Ramos and HBL-1 cells cultured in 6-well plates were treated with DMSO, R788, SKLB-850 or medium. After 18 hours, cells were harvested and washed with PBS, fixed with 70% ethanol for 30 min, stained with 200 μL PI (50 μg/mL PI with 1 mg/mL RNase I, and 0.1% Triton X-100) for 30 min. Cell cycle was analyzed with a flow cytometer (BD FACSCalibur, BD, USA).

Ramos xenograft = Ramos xenograft mouse model; format: in vivo, NOD/SCID mice
Method: (§1) The in vivo anti-BCL effects of SKLB-850 were investigated in the Ramos and HBL xenograft mouse models with R788 being taken as a positive control. The animals were treated orally once daily for 21 days (Ramos model) or 36 days (HBL-1 model).
(§2) All animal studies were conducted according to the guidelines of the Animal Care and Use Committee of Sichuan University (Permit Number: 20121205, Chengdu, Sichuan, China). Ramos and HBL-1 tumor cells were established by subcutaneously injecting 1×10^7 cells (100μL) into the hind flank region of 7–8 week old female NOD/SCID mice (ICR, NOD/SCID). When tumors reached a volume of ∼200 mm^3, mice were randomly divided into different groups (6 per group), and SKLB-850 (40 mg/kg, 20mg/kg) or vehicle (5% DMSO, 25% PEG400, and 70% waters) were given once daily by oral gavage. Tumor growth and body weight were measured every three days or every day during the treatment. Tumor volumes were calculated using the formula as follow: tumor volume (mm^3) = 0.5× length (mm) × width (mm) ^2. Studies were typically terminated when tumors in vehicle treated animals reached an average size of 2,000 mm^3. Solid tumors were removed and processed for immunohistochemical analysis and terminal deoxynucleotidyl transferase-mediated dUTP nick end labeling (TUNEL) assay.

HBL-1 xenograft = HBL-1 xenograft mouse model; format: in vivo, NOD/SCID mice; details: HBL-1 model
Method: as §1, §2

[1] = positive control, orally once daily

| Compound | percentages of apoptotic cells (in words) (HBL-1 cells) | percentage of G2 phase cells (Ramos cells; 0.01μg/mL, control 19.64 ± 0.61 %) | percentages of cells in the G2 phase (in words) (Ramos cells) | tumor inhibition rate (Ramos xenograft; 20 mg/kg orally once daily for 21 days) | tumor inhibition rate (Ramos xenograft; 40 mg/kg orally once daily for 21 days) | tumor inhibition rate (HBL-1 xenograft; 20 mg/kg orally once daily for 36 days) | anti-tumor effect (in words) (Ramos xenograft; [1]) | anti-tumor effect (in words) (HBL-1 xenograft; [1]) |
| --- | --- | --- | --- | --- | --- | --- | --- | --- |
| CN1CCN(c2ccc(Nc3ncc(F)c(Nc4ccc(Cl)cc4C(N)=O)n3)cc2)CC1 [SKLB-850, 5-chloro-2-((5-fluoro-2-((4-(4-methylpiperazin-1-yl)phenyl)amino)pyrimidin-4-yl)amino) benzamide] | dose-dependently increased | 53.90 ± 2.65% | significantly increased | 73.65% ± 21.22% | 78.82% ± 9.35% | 80.84% ±4.09% | – | – |
| COc1cc(Nc2ncc(F)c(Nc3ccc4c(n3)N(COP(=O)(O)O)C(=O)C(C)(C)O4)n2)cc(OC)c1OC [R788, reference compound] | induced apoptosis but obviously much weaker | – | very weak effect | – | – | – | some anti-tumor effect | some anti-tumor effect |
